System: Plasmodium berghei
Assay: Luciferase/luciferin-expressing antifolate-resistant parasites were used to infect a culture of HepG2 cells that were pre-incubated with compounds. Infected hepatocytes emit light due to the luciferase reaction. Assay results are presented as the percent inhibition of light emission compared to control. […]
Format: functional
Settings: sporozoite; for IC90: read-out: LUCIFERASE INFECTION ASSAY - IC90
[1] = read-out: LUCIFERASE INFECTION ASSAY - IC50

SMILES | IC90 | IC50 [1] | further results
CC1CCN(C(CNC(=O)N2CCc3sccc3C2)c2cccs2)CC1 (configuration not stated) | 9.12 µM |  | IC50 (PBLUC_HILL_SLOPE 2.26, PBLUC_R_SQUARED 0.56, read-out: LUCIFERASE INFECTION ASSAY - IC50): 3.45 µM
CC(C)c1ccc(-n2c(SCc3ccc(Cl)cc3)nnc2-c2ccc(C(C)(C)C)cc2)cc1 | > 6.93 µM | > 6.93 µM | 
N#Cc1cccc(CSc2nc(NC3CC3)c3ccccc3n2)c1 | > 10 µM |  | IC50 (HEPG2TOX_HILL_SLOPE 0.422, HEPG2TOX_R_SQUARED 0.349, read-out: LUCIFERASE INFECTION ASSAY - IC50): > 10 µM
O=C(Nc1ccccc1)Nc1cc(NC(=O)Nc2ccccc2)cc(C(F)(F)F)c1 | > 7.96 µM |  | IC50 (HEPG2TOX_HILL_SLOPE 2.43, HEPG2TOX_R_SQUARED 0.913, read-out: LUCIFERASE INFECTION ASSAY - IC50): > 7.96 µM
N#C/C(=C\c1cccc([N+](=O)[O-])c1)c1nn(-c2ccccc2)c(-n2cccc2)c1C#N | > 8.12 µM |  | IC50 (PBLUC_HILL_SLOPE 2.16, PBLUC_R_SQUARED 0.645, read-out: LUCIFERASE INFECTION ASSAY - IC50): 5.63 µM
CCOc1cc(/C=C/c2ccc3cccc(O)c3n2)cc(Br)c1O | 3.78 µM | 3.28 µM | 
COc1ccc(CNc2ncnc3ccsc23)cc1 | > 10 µM | 8.88 µM | 
Cc1ccc(C2CC(c3cccs3)=NN2c2ccc(C=C(C#N)C#N)cc2)o1 (configuration not stated) | > 10 µM |  | IC50 (FFLUC_HILL_SLOPE 2.65, FFLUC_R_SQUARED 0.905, HEPG2TOX_HILL_SLOPE 1.94, HEPG2TOX_R_SQUARED 0.705, PBLUC_HILL_SLOPE 0.92, PBLUC_R_SQUARED 0.729, read-out: LUCIFERASE INFECTION ASSAY - IC50): 1.71 µM
C=CCNC(=O)CN(C)S(=O)(=O)c1ccc2c(c1)OCCCO2 | > 10 µM | > 10 µM | 
CN1CCN(c2ccc(-c3cn4c(-c5cccc(O)c5)cnc4cn3)cc2)CC1 | > 8.56 µM |  | IC50 (HEPG2TOX_HILL_SLOPE 8.09, HEPG2TOX_R_SQUARED 0.0909, PBLUC_HILL_SLOPE 1.65, PBLUC_R_SQUARED 0.318, read-out: LUCIFERASE INFECTION ASSAY - IC50): 7.19 µM
O=C(c1c[nH]c2ccccc12)C(NCc1ccc(F)cc1)c1ccccc1 (configuration not stated) | > 10 µM | > 10 µM | 
N#CC(C#N)=NNc1ccc(-n2ccc(C(F)(F)F)n2)cc1 | > 10.8 µM | 4.97 µM | 
COc1ccc(CNCc2ccc(N3CCCCCC3)cc2)cc1 | > 10 µM |  | IC50 (PBLUC_HILL_SLOPE 0.677, PBLUC_R_SQUARED 0.204, read-out: LUCIFERASE INFECTION ASSAY - IC50): > 10 µM
CC(C)(CNC(=O)c1ccc(F)cc1)SCc1ccc(F)cc1 | > 9.84 µM |  | IC50 (HEPG2TOX_HILL_SLOPE 0.147, HEPG2TOX_R_SQUARED 0.538, PBLUC_HILL_SLOPE 1.03, PBLUC_R_SQUARED 0.662, read-out: LUCIFERASE INFECTION ASSAY - IC50): 3.54 µM
CS(=O)(=O)N1CCc2cc(C(=O)CSc3nc(-c4cccs4)nc4ccccc34)ccc21 | > 10 µM | > 10 µM | 
O=C(Nc1cccc(C(F)(F)F)c1)OCCSc1ccc([N+](=O)[O-])c2nonc12 | > 7.7 µM |  | IC50 (FFLUC_HILL_SLOPE 1.97, FFLUC_R_SQUARED 0.686, HEPG2TOX_HILL_SLOPE 15.6, HEPG2TOX_R_SQUARED 0.779, read-out: LUCIFERASE INFECTION ASSAY - IC50): > 7.7 µM
N#CC(C#N)=NNc1cc(Cl)cc(Cl)c1 | 0.565 µM |  | IC50 (HEPG2TOX_HILL_SLOPE 2.85, HEPG2TOX_R_SQUARED 0.913, PBLUC_HILL_SLOPE 19.7, PBLUC_R_SQUARED 0.581, read-out: LUCIFERASE INFECTION ASSAY - IC50): 0.505 µM
CC(C)(C)c1ccc(/C=C2\CCCc3c2nc2ccccc2c3C(=O)OCC(=O)N2CCOCC2)cc1 | > 10 µM | 8.09 µM | 
COc1cc(/C=N/NC(=S)Nc2cc(Cl)ccc2Cl)ccc1OS(=O)(=O)c1ccc(C)cc1 | > 6.29 µM | > 6.29 µM | 
O=C(c1cccc2ccccc12)N(c1ccc(F)cc1)c1nc2ccccc2s1 | > 10 µM |  | IC50 (PBLUC_HILL_SLOPE 22.2, PBLUC_R_SQUARED 0.211, read-out: LUCIFERASE INFECTION ASSAY - IC50): 9.18 µM
Cc1cc(/C=N/Nc2nc3ccccc3[nH]2)c(C)n1-c1ccc(Cl)c(C(F)(F)F)c1 | 4.05 µM |  | IC50 (FFLUC_HILL_SLOPE 2.14, FFLUC_R_SQUARED 0.676, PBLUC_HILL_SLOPE 2.82, PBLUC_R_SQUARED 0.68, read-out: LUCIFERASE INFECTION ASSAY - IC50): 1.86 µM

SMILES | IC90 | IC50 [1] | further results
O=C(Nc1nc(-c2ccc[nH]2)cs1)c1cccc(Br)c1 | > 10 µM |  | IC50 (HEPG2TOX_HILL_SLOPE 0.199, HEPG2TOX_R_SQUARED 0.479, read-out: LUCIFERASE INFECTION ASSAY - IC50): > 10 µM
COc1ccccc1N1CCN(c2nc(=O)c3c([nH]2)CCC3)CC1 | 1.26 µM |  | IC50 (FFLUC_HILL_SLOPE 1.43, FFLUC_R_SQUARED 0.67, PBLUC_HILL_SLOPE 2.78, PBLUC_R_SQUARED 0.645, read-out: LUCIFERASE INFECTION ASSAY - IC50): 0.572 µM
CC(C)CNc1nn2c(-c3ccc(O)cc3)cnc2s1 | > 11.4 µM | > 11.4 µM | 
CSc1sc(C(=O)Sc2ccccc2)cc1S(=O)(=O)C(C)C | > 8.86 µM | > 8.86 µM | 
Fc1ccc(-c2csc3ncnc(Sc4nnnn4-c4ccccc4)c23)cc1 | 3.53 µM |  | IC50 (HEPG2TOX_HILL_SLOPE 2.6, HEPG2TOX_R_SQUARED 0.978, PBLUC_HILL_SLOPE 15.6, PBLUC_R_SQUARED 0.498, read-out: LUCIFERASE INFECTION ASSAY - IC50): 3.07 µM
CC(=O)Nc1ccc(Nc2cc3c(cn2)nc(-c2ccccc2)n3C)cc1 | 3.77 µM |  | IC50 (HEPG2TOX_HILL_SLOPE 4.43, HEPG2TOX_R_SQUARED 0.848, PBLUC_HILL_SLOPE 16.8, PBLUC_R_SQUARED 0.556, read-out: LUCIFERASE INFECTION ASSAY - IC50): 3.31 µM
Cc1sc2ncnc(NC(C)c3ccc(S(C)(=O)=O)cc3)c2c1C (configuration not stated) | > 10 µM |  | IC50 (HEPG2TOX_HILL_SLOPE 5.66, HEPG2TOX_R_SQUARED 0.483, PBLUC_HILL_SLOPE 1.68, PBLUC_R_SQUARED 0.334, read-out: LUCIFERASE INFECTION ASSAY - IC50): 6.13 µM
Cc1nnsc1-c1onc(C)c1C(=O)Nc1cc(Cl)cc(Cl)c1 | > 8.94 µM |  | IC50 (HEPG2TOX_HILL_SLOPE 2.99, HEPG2TOX_R_SQUARED 0.625, PBLUC_HILL_SLOPE 10.3, PBLUC_R_SQUARED 0.237, read-out: LUCIFERASE INFECTION ASSAY - IC50): 8.32 µM
Oc1c(Cn2c(=S)sc3ccccc32)cc(Cl)c2cccnc12 | 1.24 µM |  | IC50 (FFLUC_HILL_SLOPE 19.2, FFLUC_R_SQUARED 0.535, HEPG2TOX_HILL_SLOPE 1.74, 1.21, HEPG2TOX_R_SQUARED 0.199, 0.803, PBLUC_HILL_SLOPE 4.66, PBLUC_R_SQUARED 0.802, read-out: LUCIFERASE INFECTION ASSAY - IC50): 0.772 µM
CCc1cccc(CC)c1N1C(=O)/C(=C\c2ccc(C(C)(C)C)cc2)N(C)C1=S | > 10 µM |  | IC50 (FFLUC_HILL_SLOPE 0.556, FFLUC_R_SQUARED 0.412, PBLUC_HILL_SLOPE 2.98, PBLUC_R_SQUARED 0.687, read-out: LUCIFERASE INFECTION ASSAY - IC50): 5.42 µM
O=C(Nc1cccc(F)c1)Nc1ccc2nc(-c3ccoc3)nn2c1 | > 10 µM |  | IC50 (PBLUC_HILL_SLOPE 11.8, PBLUC_R_SQUARED 0.647, read-out: LUCIFERASE INFECTION ASSAY - IC50): 8.63 µM
Cc1cc(NCc2c(F)cccc2Cl)ccc1N1CCCC1=O | > 10 µM |  | IC50 (PBLUC_HILL_SLOPE 14.5, PBLUC_R_SQUARED 0.0625, read-out: LUCIFERASE INFECTION ASSAY - IC50): 9.88 µM
O=C(NCCCn1cnc2ccccc21)c1ccc(Oc2ccc(F)cc2)cc1 | > 10 µM |  | IC50 (HEPG2TOX_HILL_SLOPE 1.27, HEPG2TOX_R_SQUARED 0.899, PBLUC_HILL_SLOPE 1.4, PBLUC_R_SQUARED 0.524, read-out: LUCIFERASE INFECTION ASSAY - IC50): 5.3 µM
Cc1ccc(OC(=O)c2ccc(C(C)(C)C)cc2)c(NC(=O)c2ccc(C(C)(C)C)cc2)c1 | > 7.44 µM |  | IC50 (FFLUC_HILL_SLOPE 1.14, FFLUC_R_SQUARED 0.535, PBLUC_HILL_SLOPE 1.18, PBLUC_R_SQUARED 0.716, read-out: LUCIFERASE INFECTION ASSAY - IC50): 1.43 µM
COc1ccc(-c2ccnc3n[nH]c(-c4ccncc4)c23)cc1 | > 10 µM |  | IC50 (HEPG2TOX_HILL_SLOPE 3.34, HEPG2TOX_R_SQUARED 0.878, PBLUC_HILL_SLOPE 1.93, PBLUC_R_SQUARED 0.439, read-out: LUCIFERASE INFECTION ASSAY - IC50): 3.22 µM
CC(=O)c1cccc(-c2cnc3cnc(-c4cnn(C)c4)cn23)c1 | > 10.4 µM |  | IC50 (HEPG2TOX_HILL_SLOPE 7.11, HEPG2TOX_R_SQUARED 0.363, PBLUC_HILL_SLOPE 4.07, PBLUC_R_SQUARED 0.503, read-out: LUCIFERASE INFECTION ASSAY - IC50): 9.68 µM
Nc1ccc(-c2cn3c(-c4ccc(CO)cc4)cnc3cn2)cn1 | 9.13 µM | 5.8 µM | 
Cc1ccc(Nc2nc(N)nc(CN(C)Cc3nc(=O)c4ccccc4[nH]3)n2)cc1 | 8.22 µM |  | IC50 (PBLUC_HILL_SLOPE 2.75, PBLUC_R_SQUARED 0.503, read-out: LUCIFERASE INFECTION ASSAY - IC50): 3.7 µM
CCc1c(C(=O)Nc2ccn(CCc3ccccn3)n2)cnn1C(C)(C)C | 2.23 µM |  | IC50 (PBLUC_HILL_SLOPE 0.847, PBLUC_R_SQUARED 0.391, read-out: LUCIFERASE INFECTION ASSAY - IC50): 0.166 µM
CCN(CC)S(=O)(=O)c1ccc(=O)n(Cc2nc(N)nc(N(C)C)n2)c1 | > 10 µM | > 10 µM | 

Reference: ChEMBL document CHEMBL4483862, “Open-source discovery of chemical leads for next-generation chemoprotective antimalarials” (2018)
